“Also recorded” adds a separate entry of the source.
Assays:
[1] = tested on: MHCII molecules (HLA-DR, HLA-DP, HLA-DQ) of Raji B cells; assay type: binding, human
[2] = tested on: IFN-γ production by CD4+ T cell enriched donor PBMCs; assay type: cell-based, human
CD4+ T cells = assay type: cell-based, human

Sequence	Observed in Isotypes [1]	Donor 1 IFN-γ [2]	Donor 2 IFN-γ [2]	Donor 3 IFN-γ [2]	Donor 4 IGN-γ [2]	IFN-γ production [2]	number of donors with significant levels of IFN-γ [2]	CD4+ T cell proliferation compared to basal growth rate (CD4+ T cells)	Donor 3 CFSE (CD4+ T cells)	Donor 4 CFSE (CD4+ T cells)	donors that gave positive / significant T cell response (CD4+ T cells)	Donor 1 CFSE (CD4+ T cells)	Donor 2 CFSE (CD4+ T cells)	number of donors with positive T cell proliferative response (CD4+ T cells)	T cell response against previously published TT epitopes (CD4+ T cells)
CKALNPKEIE (TT-derived peptide) [TT1093-1102]	pulled down in the -DQ IP; also recorded: DR, DQ	* (key: * p < 0.05; ** p < 0.005; *** p < 0.0005)	* (key: * p < 0.05; ** p < 0.005; *** p < 0.0005)	** (key: * p < 0.05; ** p < 0.005; *** p < 0.0005)	* (key: * p < 0.05; ** p < 0.005; *** p < 0.0005)	significant levels of IFN-γ response; also recorded: significant production of IFN-γ	at least three	not significant compared to basal growth rate	** (key: * p < 0.05; ** p < 0.005; *** p < 0.0005)	*** (key: * p < 0.05; ** p < 0.005; *** p < 0.0005)	Donors 3 and 4	–	–	–	–
DRILRVGYNAPGIPL (TT-derived peptide) [TT1222-1236]	–	–	*** (key: * p < 0.05; ** p < 0.005; *** p < 0.0005)	–	–	significant production of IFN-γ	–	–	–	* (key: * p < 0.05; ** p < 0.005; *** p < 0.0005)	–	* (key: * p < 0.05; ** p < 0.005; *** p < 0.0005)	*** (key: * p < 0.05; ** p < 0.005; *** p < 0.0005)	three	–
GLTKVLALKVD (CRM-derived peptide) [CRM87-97]	–	* (key: * p < 0.05; ** p < 0.005; *** p < 0.0005)	** (key: * p < 0.05; ** p < 0.005; *** p < 0.0005)	*** (key: * p < 0.05; ** p < 0.005; *** p < 0.0005)	** (key: * p < 0.05; ** p < 0.005; *** p < 0.0005)	significant levels of IFN-γ response; also recorded: significant production of IFN-γ	at least three	not significant compared to basal growth rate	** (key: * p < 0.05; ** p < 0.005; *** p < 0.0005)	*** (key: * p < 0.05; ** p < 0.005; *** p < 0.0005)	Donors 3 and 4	–	–	–	–
GYNAPGIPLYKK (TT-derived peptide) [TT1228-1239]	–	–	–	** (key: * p < 0.05; ** p < 0.005; *** p < 0.0005)	** (key: * p < 0.05; ** p < 0.005; *** p < 0.0005)	–	–	–	** (key: * p < 0.05; ** p < 0.005; *** p < 0.0005)	*** (key: * p < 0.05; ** p < 0.005; *** p < 0.0005)	Donors 3 and 4	–	–	–	–
GYVDSIQKGIQKPK (CRM-derived peptide) [CRM26-39]	–	** (key: * p < 0.05; ** p < 0.005; *** p < 0.0005)	** (key: * p < 0.05; ** p < 0.005; *** p < 0.0005)	* (key: * p < 0.05; ** p < 0.005; *** p < 0.0005)	*** (key: * p < 0.05; ** p < 0.005; *** p < 0.0005)	significant levels of IFN-γ response; also recorded: significant production of IFN-γ	at least three	increased proliferation	* (key: * p < 0.05; ** p < 0.005; *** p < 0.0005)	*** (key: * p < 0.05; ** p < 0.005; *** p < 0.0005)	–	* (key: * p < 0.05; ** p < 0.005; *** p < 0.0005)	–	three	–
KFIIKRYTPNNEIDSF (TT-derived peptide) [Peptide P32, reference compound]	–	–	** (key: * p < 0.05; ** p < 0.005; *** p < 0.0005)	** (key: * p < 0.05; ** p < 0.005; *** p < 0.0005)	* (key: * p < 0.05; ** p < 0.005; *** p < 0.0005)	–	–	–	** (key: * p < 0.05; ** p < 0.005; *** p < 0.0005)	*** (key: * p < 0.05; ** p < 0.005; *** p < 0.0005)	–	–	*** (key: * p < 0.05; ** p < 0.005; *** p < 0.0005)	–	no significant response
KTTAALSILPGIGS (CRM-derived peptide) [CRM299-312]	pulled down in the HLA-DP specific immunoprecipitation; also recorded: pulled down in the -DQ IP; also recorded: identified through the -DR IP; also recorded: DR, DP, DQ	* (key: * p < 0.05; ** p < 0.005; *** p < 0.0005)	** (key: * p < 0.05; ** p < 0.005; *** p < 0.0005)	* (key: * p < 0.05; ** p < 0.005; *** p < 0.0005)	** (key: * p < 0.05; ** p < 0.005; *** p < 0.0005)	significant levels of IFN-γ response; also recorded: significant production of IFN-γ	at least three	increased proliferation	** (key: * p < 0.05; ** p < 0.005; *** p < 0.0005)	*** (key: * p < 0.05; ** p < 0.005; *** p < 0.0005)	–	*** (key: * p < 0.05; ** p < 0.005; *** p < 0.0005)	*** (key: * p < 0.05; ** p < 0.005; *** p < 0.0005)	four	–
LFNRIKNNVAGEAL (TT-derived peptide) [TT94-107]	–	–	** (key: * p < 0.05; ** p < 0.005; *** p < 0.0005)	** (key: * p < 0.05; ** p < 0.005; *** p < 0.0005)	* (key: * p < 0.05; ** p < 0.005; *** p < 0.0005)	significant production of IFN-γ	at least three	increased proliferation	*** (key: * p < 0.05; ** p < 0.005; *** p < 0.0005)	** (key: * p < 0.05; ** p < 0.005; *** p < 0.0005)	–	–	*** (key: * p < 0.05; ** p < 0.005; *** p < 0.0005)	three	–
LYNGLKFIIKR (TT-derived peptide) [TT1169-1179]	–	–	* (key: * p < 0.05; ** p < 0.005; *** p < 0.0005)	* (key: * p < 0.05; ** p < 0.005; *** p < 0.0005)	* (key: * p < 0.05; ** p < 0.005; *** p < 0.0005)	significant production of IFN-γ	at least three	–	* (key: * p < 0.05; ** p < 0.005; *** p < 0.0005)	–	–	* (key: * p < 0.05; ** p < 0.005; *** p < 0.0005)	*** (key: * p < 0.05; ** p < 0.005; *** p < 0.0005)	three	–
NFIGALET (TT-derived peptide) [TT660-667]	–	* (key: * p < 0.05; ** p < 0.005; *** p < 0.0005)	–	* (key: * p < 0.05; ** p < 0.005; *** p < 0.0005)	* (key: * p < 0.05; ** p < 0.005; *** p < 0.0005)	significant levels of IFN-γ response	at least three	–	** (key: * p < 0.05; ** p < 0.005; *** p < 0.0005)	*** (key: * p < 0.05; ** p < 0.005; *** p < 0.0005)	Donors 3 and 4	–	–	–	–
NILMQYIKANSK (TT-derived peptide) [TT826-837]	–	–	–	* (key: * p < 0.05; ** p < 0.005; *** p < 0.0005)	–	–	–	no significant response	–	–	–	–	–	one	–
QYIKANSKFIGITEL (TT-derived peptide) [Peptide P2, reference compound]	–	–	–	–	* (key: * p < 0.05; ** p < 0.005; *** p < 0.0005)	–	–	did not show increased proliferation; also recorded: did not show significant proliferation	* (key: * p < 0.05; ** p < 0.005; *** p < 0.0005)	*** (key: * p < 0.05; ** p < 0.005; *** p < 0.0005)	–	–	–	–	no significant response
TPLPIAGVLLPTIPGK (CRM-derived peptide) [CRM425-440]	pulled down in the -DQ IP; also recorded: DR, DQ	–	** (key: * p < 0.05; ** p < 0.005; *** p < 0.0005)	** (key: * p < 0.05; ** p < 0.005; *** p < 0.0005)	*** (key: * p < 0.05; ** p < 0.005; *** p < 0.0005)	significant production of IFN-γ	at least three	increased proliferation	** (key: * p < 0.05; ** p < 0.005; *** p < 0.0005)	*** (key: * p < 0.05; ** p < 0.005; *** p < 0.0005)	Donors 2,3, and 4	–	*** (key: * p < 0.05; ** p < 0.005; *** p < 0.0005)	three	–

From patent US20230211004A1, “TETANUS TOXOID AND CRM-BASED PEPTIDES AND METHODS OF USE” (UNIVERSITY OF GEORGIA RESEARCH FOUNDATION, INC., priority 2019, published 2023)
